Key:
[1] = target: human mGluR5a receptors (Homo sapiens (Human), UniProt P41594); assay: inhibition of glutamate-induced elevation of intracellular calcium in L(tk-) cells expressing human mGluR5a; assay type: cell-based; conditions: for IC50: glutamate-induced intracellular calcium elevation, L(tk-) cells expressing human mGluR5a, read-out: mGluR5 IC50; for inhibition at 2 µM: LTK, read-out: mGluR5 % inhibition at 2 μM
In short: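 Compounds tested for inhibition of the glutamate-induced rise in intracellular calcium concentration in L(tk-) cells stably expressing human mGluR5a.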

[2] = target: human mGluR1 (Homo sapiens (Human), UniProt Q13255); assay: mGluR1 antagonism, L-glutamate induced intracellular calcium increase (FLIPR) in CHO cells stably expressing human mGluR1; assay type: cell-based; conditions: L-glutamate induced intracellular calcium, CHO cells expressing human mGluR1, FLIPR
Sequence of human mGluR1 (Q13255 19-1194): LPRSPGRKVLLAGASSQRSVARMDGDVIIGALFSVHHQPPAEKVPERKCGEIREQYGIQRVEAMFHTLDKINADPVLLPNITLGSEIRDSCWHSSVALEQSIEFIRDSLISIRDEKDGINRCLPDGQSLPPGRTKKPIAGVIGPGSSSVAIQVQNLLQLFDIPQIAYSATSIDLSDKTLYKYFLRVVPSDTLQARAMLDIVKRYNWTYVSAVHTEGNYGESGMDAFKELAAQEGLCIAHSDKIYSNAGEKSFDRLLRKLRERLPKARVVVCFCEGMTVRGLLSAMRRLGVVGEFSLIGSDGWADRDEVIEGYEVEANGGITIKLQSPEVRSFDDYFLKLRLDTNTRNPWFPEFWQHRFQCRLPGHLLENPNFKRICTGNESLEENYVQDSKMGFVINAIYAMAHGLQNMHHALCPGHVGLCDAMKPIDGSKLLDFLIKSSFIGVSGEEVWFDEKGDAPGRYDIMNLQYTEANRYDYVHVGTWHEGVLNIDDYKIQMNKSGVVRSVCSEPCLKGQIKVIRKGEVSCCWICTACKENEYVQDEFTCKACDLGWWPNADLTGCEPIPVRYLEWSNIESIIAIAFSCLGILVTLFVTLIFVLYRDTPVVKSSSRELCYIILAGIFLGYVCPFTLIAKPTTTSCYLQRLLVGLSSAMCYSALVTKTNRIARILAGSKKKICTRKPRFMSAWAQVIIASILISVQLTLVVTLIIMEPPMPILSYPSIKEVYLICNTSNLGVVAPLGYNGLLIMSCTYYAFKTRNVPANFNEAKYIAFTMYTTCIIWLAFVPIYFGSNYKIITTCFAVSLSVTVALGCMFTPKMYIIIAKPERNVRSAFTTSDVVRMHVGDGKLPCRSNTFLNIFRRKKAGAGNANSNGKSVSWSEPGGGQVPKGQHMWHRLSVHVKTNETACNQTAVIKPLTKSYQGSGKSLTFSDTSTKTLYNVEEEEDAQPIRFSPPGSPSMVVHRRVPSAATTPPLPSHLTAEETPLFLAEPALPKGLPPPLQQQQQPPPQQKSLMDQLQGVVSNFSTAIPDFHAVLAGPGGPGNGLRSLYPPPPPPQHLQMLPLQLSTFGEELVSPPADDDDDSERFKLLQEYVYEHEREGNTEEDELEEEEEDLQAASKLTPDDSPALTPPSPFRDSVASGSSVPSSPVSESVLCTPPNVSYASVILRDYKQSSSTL

Sequence of human mGluR5a receptors (P41594 other isoform, or with tags, fused parts or gaps): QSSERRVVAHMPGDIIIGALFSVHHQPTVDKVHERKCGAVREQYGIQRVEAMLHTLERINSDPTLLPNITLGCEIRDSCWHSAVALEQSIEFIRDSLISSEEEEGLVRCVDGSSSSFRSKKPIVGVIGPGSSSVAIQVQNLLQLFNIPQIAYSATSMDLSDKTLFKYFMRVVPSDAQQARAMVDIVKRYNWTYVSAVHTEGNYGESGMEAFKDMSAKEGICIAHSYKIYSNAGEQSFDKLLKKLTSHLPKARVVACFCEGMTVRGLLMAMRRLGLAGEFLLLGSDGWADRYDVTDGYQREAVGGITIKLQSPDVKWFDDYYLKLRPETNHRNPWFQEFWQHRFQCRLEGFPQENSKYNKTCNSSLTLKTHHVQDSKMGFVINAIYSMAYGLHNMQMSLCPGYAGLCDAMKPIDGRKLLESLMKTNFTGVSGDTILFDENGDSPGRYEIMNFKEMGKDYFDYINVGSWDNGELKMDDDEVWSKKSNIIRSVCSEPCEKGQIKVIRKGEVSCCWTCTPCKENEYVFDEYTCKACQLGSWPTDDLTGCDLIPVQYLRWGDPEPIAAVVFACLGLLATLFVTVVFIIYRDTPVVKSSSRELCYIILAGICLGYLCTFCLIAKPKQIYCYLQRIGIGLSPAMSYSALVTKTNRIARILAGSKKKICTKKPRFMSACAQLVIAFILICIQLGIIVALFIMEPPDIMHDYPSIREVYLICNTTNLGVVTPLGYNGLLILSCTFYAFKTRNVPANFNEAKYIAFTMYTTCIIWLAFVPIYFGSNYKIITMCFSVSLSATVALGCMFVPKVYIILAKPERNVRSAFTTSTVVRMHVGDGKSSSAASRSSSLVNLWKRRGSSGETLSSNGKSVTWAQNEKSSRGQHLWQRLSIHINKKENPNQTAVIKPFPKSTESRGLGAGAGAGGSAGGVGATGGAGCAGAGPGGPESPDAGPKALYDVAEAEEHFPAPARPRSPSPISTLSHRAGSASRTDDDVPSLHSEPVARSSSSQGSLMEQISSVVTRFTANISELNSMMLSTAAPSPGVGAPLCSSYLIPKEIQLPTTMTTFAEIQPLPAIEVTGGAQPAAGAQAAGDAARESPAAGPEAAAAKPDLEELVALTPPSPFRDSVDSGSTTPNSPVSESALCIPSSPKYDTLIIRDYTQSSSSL

IC50 [1] | IC50 [2] | inhibition at 2 µM [1] | SMILES
68 nM | > 10000 nM |  | COC1(c2cn(C3=NCC(=O)N4CCc5c(cccc5-c5ccc(F)nc5)C4=C3)cn2)CC1 [Example 106a, 9-(6-fluoropyridin-3-yl)-2-(4-(1-methoxycyclopropyl)-1H-imidazol-1-yl)-7,8-dihydro-[1,4]diazepino[7,1-a]isoquinolin-5(4H)-one]
168 nM | 7330 nM |  | Cc1cn(C2=NCC(=O)N3CCc4c(cccc4-c4cnccn4)C3=C2)cn1 [Example 106b, 2-(4-methyl-1H-imidazol-1-yl)-9-(pyrazin-2-yl)-7,8-dihydro-[1,4]diazepino[7,1-a]isoquinolin-5(4H)-one]
1090 nM | > 10000 nM |  | O=C1CN=C(n2cnc(C3(O)COC3)c2)C=C2c3cccc(-c4ccc(F)nc4)c3CCN12 [Example 106c, 9-(6-fluoropyridin-3-yl)-2-(4-(3-hydroxyoxetan-3-yl)-1H-imidazol-1-yl)-7,8-dihydro-[1,4]diazepino[7,1-a]isoquinolin-5(4H)-one]
18 nM | 3300 nM |  | Cc1nc(-c2cccc3c2CCN2C(=O)CN=C(n4cnc(C5CC5)c4)C=C32)co1 [Example 108, 2-(4-cyclopropyl-1H-imidazol-1-yl)-9-(2-methyloxazol-4-yl)-7,8-dihydro-[1,4]diazepino[7,1-a]isoquinolin-5(4H)-one]
91 nM | > 10000 nM |  | Cc1nc(-c2cccc3c2CCN2C(=O)CN=C(n4cnc(C5CC5)n4)C=C32)co1 [Example 108a, 2-(3-cyclopropyl-1H-1,2,4-triazol-1-yl)-9-(2-methyloxazol-4-yl)-7,8-dihydro-[1,4]diazepino[7,1-a]isoquinolin-5(4H)-one]
115 nM | > 10000 nM |  | Cc1cn(C2=NCC(=O)N3CCc4c(cccc4-c4coc(C)n4)C3=C2)cn1 [Example 108c, 2-(4-methyl-1H-imidazol-1-yl)-9-(2-methyloxazol-4-yl)-7,8-dihydro-[1,4]diazepino[7,1-a]isoquinolin-5(4H)-one]
270 nM | > 10000 nM |  | O=C1CN=C(n2cnc(C3CC3)c2)C=C2c3ccnc(-c4ccc(F)nc4)c3CCN12 [Example 110, 2-(4-cyclopropyl-1H-imidazol-1-yl)-9-(6-fluoropyridin-3-yl)-7,8-dihydro-[1,4]diazepino[7,1-a][2,6]naphthyridin-5(4H)-one]
328 nM | > 2000 nM |  | O=C1CN=C(n2cnc(C3CC3)c2)C=C2c3ccnc(C4CC4)c3CCN12 [Example 110a, 9-cyclopropyl-2-(4-cyclopropyl-1H-imidazol-1-yl)-7,8-dihydro-[1,4]diazepino[7,1-a][2,6]naphthyridin-5(4H)-one]
758 nM | > 10000 nM |  | O=C1CN=C(n2cnc(C3CC3)n2)C=C2c3ccnc(C4CC4)c3CCN12 [Example 110b, 9-cyclopropyl-2-(3-cyclopropyl-1H-1,2,4-triazol-1-yl)-7,8-dihydro-[1,4]diazepino[7,1-a][2,6]naphthyridin-5(4H)-one]
 | > 10000 nM | 72% | CO[C@H](C)c1cn(C2=NCC(=O)N3CCc4c(ccnc4C4CC4)C3=C2)cn1 [Example 110c, (R)-9-cyclopropyl-2-(4-(1-methoxyethyl)-1H-imidazol-1-yl)-7,8-dihydro-[1,4]diazepino[7,1-a][2,6]naphthyridin-5(4H)-one]
 | > 10000 nM | 57% | O=C1CN=C(n2cnc(C(F)F)c2)C=C2c3ccnc(C4CC4)c3CCN12 [Example 110d, 9-cyclopropyl-2-(4-(difluoromethyl)-1H-imidazol-1-yl)-7,8-dihydro-[1,4]diazepino[7,1-a][2,6]naphthyridin-5(4H)-one]
515 nM | > 10000 nM |  | CC(C)(C)c1cn(C2=NCC(=O)N3CCc4c(cccc4C4CCCO4)C3=C2)cn1 (centres unmarked) [Example 112, 2-(4-(tert-butyl)-1H-imidazol-1-yl)-9-(tetrahydrofuran-2-yl)-7,8-dihydro-[1,4]diazepino[7,1-a]isoquinolin-5(4H)-one]
1600 nM | > 10000 nM |  | CCc1cn(C2=NCC(=O)N3CCc4c(cccc4C4(F)COC4)C3=C2)cn1 [Example 114, 2-(4-ethyl-1H-imidazol-1-yl)-9-(3-fluorooxetan-3-yl)-7,8-dihydro-[1,4]diazepino[7,1-a]isoquinolin-5(4H)-one]
410 nM | > 10000 nM |  | CC(=O)c1cccc2c1CCN1C(=O)CN=C(n3cnc(C)c3)C=C21 [Example 116, 9-acetyl-2-(4-methyl-1H-imidazol-1-yl)-7,8-dihydro-[1,4]diazepino[7,1-a]isoquinolin-5(4H)-one]
35 nM | 660 nM |  | CC(=O)c1cccc2c1CCN1C(=O)CN=C(n3cnc(C4CCC4)c3)C=C21 [Example 117, 9-acetyl-2-(4-cyclobutyl-1H-imidazol-1-yl)-7,8-dihydro-[1,4]diazepino[7,1-a]isoquinolin-5(4H)-one]
18 nM | > 10000 nM |  | C=C(C)c1cccc2c1CCN1C(=O)CN=C(n3cnc([C@@H](C)OC)c3)C=C21 [Example 118, (R)-2-(4-(1-methoxyethyl)-1H-imidazol-1-yl)-9-(prop-1-en-2-yl)-7,8-dihydro-[1,4]diazepino[7,1-a]isoquinolin-5(4H)-one]
24 nM | 2600 nM |  | C=C(C)c1cccc2c1CCN1C(=O)CN=C(n3cnc([C@H](C)OC)c3)C=C21 [Example 119, (S)-2-(4-(1-methoxyethyl)-1H-imidazol-1-yl)-9-(prop-1-en-2-yl)-7,8-dihydro-[1,4]diazepino[7,1-a]isoquinolin-5(4H)-one]
7 nM | 890 nM |  | COCc1cn(C2=NCC(=O)N3CCc4c(C5=CCCC5)cccc4C3=C2)cn1 [Example 120, 9-(cyclopent-1-en-1-yl)-2-(4-(methoxymethyl)-1H-imidazol-1-yl)-7,8-dihydro-[1,4]diazepino[7,1-a]isoquinolin-5(4H)-one]
14 nM | 490 nM |  | C=C(C)c1cccc2c1CCN1C(=O)CN=C(n3cnc(COC)c3)C=C21 [Example 121, 2-(4-(methoxymethyl)-1H-imidazol-1-yl)-9-(prop-1-en-2-yl)-7,8-dihydro-[1,4]diazepino[7,1-a]isoquinolin-5(4H)-one]
5 nM | 1100 nM |  | CO[C@@H](C)c1cn(C2=NCC(=O)N3CCc4c(cccc4C4CC4)C3=C2)cn1 [Example 122, (S)-9-cyclopropyl-2-(4-(1-methoxyethyl)-1H-imidazol-1-yl)-7,8-dihydro-[1,4]diazepino[7,1-a]isoquinolin-5(4H)-one]
3 nM | 7000 nM |  | CO[C@H](C)c1cn(C2=NCC(=O)N3CCc4c(cccc4C4CC4)C3=C2)cn1 [Example 123, (R)-9-cyclopropyl-2-(4-(1-methoxyethyl)-1H-imidazol-1-yl)-7,8-dihydro-[1,4]diazepino[7,1-a]isoquinolin-5(4H)-one]
12 nM | > 2000 nM |  | O=C1CN=C(n2cnc(-c3cnco3)c2)C=C2c3cccc(C4CC4)c3CCN12 [Example 123a, 9-cyclopropyl-2-(4-(oxazol-5-yl)-1H-imidazol-1-yl)-7,8-dihydro-[1,4]diazepino[7,1-a]isoquinolin-5(4H)-one]
1 nM | 2340 nM |  | O=C1CN=C(n2cnc(-c3ccno3)c2)C=C2c3cccc(C4CC4)c3CCN12 [Example 123b, 9-cyclopropyl-2-(4-(isoxazol-5-yl)-1H-imidazol-1-yl)-7,8-dihydro-[1,4]diazepino[7,1-a]isoquinolin-5(4H)-one]
8 nM | 226 nM |  | O=C1CN=C(n2cnc(C3CC3)n2)C=C2c3cccc(C4CC4)c3CCN12 [Example 123c, 9-cyclopropyl-2-(3-cyclopropyl-1H-1,2,4-triazol-1-yl)-7,8-dihydro-[1,4]diazepino[7,1-a]isoquinolin-5(4H)-one]
11 nM | 511 nM |  | COc1cn(C2=NCC(=O)N3CCc4c(cccc4C4CC4)C3=C2)cn1 [Example 123d, 9-cyclopropyl-2-(4-methoxy-1H-imidazol-1-yl)-7,8-dihydro-[1,4]diazepino[7,1-a]isoquinolin-5(4H)-one]
56 nM | 1640 nM |  | O=C1CN=C(n2cnc(C(F)(F)F)c2)C=C2c3cccc(C4CC4)c3CCN12 [Example 123e, 9-cyclopropyl-2-(4-(trifluoromethyl)-1H-imidazol-1-yl)-7,8-dihydro-[1,4]diazepino[7,1-a]isoquinolin-5(4H)-one]
108 nM | > 2000 nM |  | O=C1CN=C(n2cnc(-c3ccncc3)c2)C=C2c3cccc(C4CC4)c3CCN12 [Example 123f, 9-cyclopropyl-2-(4-(pyridin-4-yl)-1H-imidazol-1-yl)-7,8-dihydro-[1,4]diazepino[7,1-a]isoquinolin-5(4H)-one]
5 nM | 3300 nM |  | CCC(=O)c1cccc2c1CCN1C(=O)CN=C(n3cnc(C4CCC4)c3)C=C21 [Example 124, 2-(4-cyclobutyl-1H-imidazol-1-yl)-9-propionyl-7,8-dihydro-[1,4]diazepino[7,1-a]isoquinolin-5(4H)-one]

SMILES | IC50 [1] | IC50 [2] | inhibition at 2 µM [1]
CC1=C2c3cccc(-c4cc(C)no4)c3CCN2C(=O)CN=C1n1cnc(C2CC2)c1 [Example 107, 2-(4-cyclopropyl-1H-imidazol-1-yl)-1-methyl-9-(3-methylisoxazol-5-yl)-7,8-dihydro-[1,4]diazepino[7,1-a]isoquinolin-5(4H)-one] | 835 nM | > 10000 nM | 
O=C1CN=C(n2cnc(C3CC3)c2)C=C2c3cccc(-c4cnco4)c3CCN12 [Example 109, 2-(4-cyclopropyl-1H-imidazol-1-yl)-9-(oxazol-5-yl)-7,8-dihydro-[1,4]diazepino[7,1-a]isoquinolin-5(4H)-one] | 10 nM | 1800 nM | 
CCc1cn(C2=NCC(=O)N3CCc4c(cccc4C4(F)CCC4)C3=C2)cn1 [Example 113, 2-(4-ethyl-1H-imidazol-1-yl)-9-(1-fluorocyclobutyl)-7,8-dihydro-[1,4]diazepino[7,1-a]isoquinolin-5(4H)-one] | 120 nM | 2300 nM | 

Reference: US8853203B2, “Diazepinone derivatives” (Novartis AG, priority 2012, dated 2014)
